These results are taken from patent US20040142317A1, “Use of amino acid transporter atbo,+ as a delivery system for drugs and prodrugs” (priority 2003, published 2004).

The target of one experiment is T1, mouse ATB^0,+ (Mus musculus, UniProt Q9JMA9).
T1 sequence (Q9JMA9 1-638): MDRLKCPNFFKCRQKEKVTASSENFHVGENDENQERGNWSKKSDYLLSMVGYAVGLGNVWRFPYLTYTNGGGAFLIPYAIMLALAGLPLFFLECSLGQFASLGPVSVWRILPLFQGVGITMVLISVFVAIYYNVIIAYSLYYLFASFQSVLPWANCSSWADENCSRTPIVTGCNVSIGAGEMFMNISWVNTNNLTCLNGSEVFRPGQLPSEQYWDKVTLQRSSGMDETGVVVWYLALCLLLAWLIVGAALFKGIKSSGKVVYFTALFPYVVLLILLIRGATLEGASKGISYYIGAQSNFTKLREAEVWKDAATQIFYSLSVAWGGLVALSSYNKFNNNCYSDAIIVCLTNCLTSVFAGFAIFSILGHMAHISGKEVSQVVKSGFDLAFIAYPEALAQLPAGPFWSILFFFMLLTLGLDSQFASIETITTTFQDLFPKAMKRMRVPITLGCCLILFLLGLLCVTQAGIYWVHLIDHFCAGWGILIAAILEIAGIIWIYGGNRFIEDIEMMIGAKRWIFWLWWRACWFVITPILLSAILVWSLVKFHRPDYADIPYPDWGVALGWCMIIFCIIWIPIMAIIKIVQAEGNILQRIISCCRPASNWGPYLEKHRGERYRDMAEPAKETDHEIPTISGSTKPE
The note with it: D-amino acid 1 mM; NaCl pH 7.5.

Another experiment has as its target T2, LAT2/4F2hc (Homo sapiens, UniProt Q9UHI5).
T2 construct: expressed in transfected cells; host or cells: HRPE cells
T2 sequence (Q9UHI5 1-535): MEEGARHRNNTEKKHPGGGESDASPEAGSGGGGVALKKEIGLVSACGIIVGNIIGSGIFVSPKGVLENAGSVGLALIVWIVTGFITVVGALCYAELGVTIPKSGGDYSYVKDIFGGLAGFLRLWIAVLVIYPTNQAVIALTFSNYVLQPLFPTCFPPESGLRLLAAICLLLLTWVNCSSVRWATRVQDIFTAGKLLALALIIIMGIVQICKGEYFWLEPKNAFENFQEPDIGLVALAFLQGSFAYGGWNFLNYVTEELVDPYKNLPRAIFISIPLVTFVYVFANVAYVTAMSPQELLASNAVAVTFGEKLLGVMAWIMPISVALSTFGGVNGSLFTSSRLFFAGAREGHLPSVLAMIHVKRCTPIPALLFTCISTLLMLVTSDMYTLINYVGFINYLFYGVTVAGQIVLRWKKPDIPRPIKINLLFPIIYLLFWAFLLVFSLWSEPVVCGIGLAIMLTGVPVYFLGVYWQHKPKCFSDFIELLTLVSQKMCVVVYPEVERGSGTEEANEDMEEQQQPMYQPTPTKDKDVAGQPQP
T2 sequence (P08195 1-529 partner): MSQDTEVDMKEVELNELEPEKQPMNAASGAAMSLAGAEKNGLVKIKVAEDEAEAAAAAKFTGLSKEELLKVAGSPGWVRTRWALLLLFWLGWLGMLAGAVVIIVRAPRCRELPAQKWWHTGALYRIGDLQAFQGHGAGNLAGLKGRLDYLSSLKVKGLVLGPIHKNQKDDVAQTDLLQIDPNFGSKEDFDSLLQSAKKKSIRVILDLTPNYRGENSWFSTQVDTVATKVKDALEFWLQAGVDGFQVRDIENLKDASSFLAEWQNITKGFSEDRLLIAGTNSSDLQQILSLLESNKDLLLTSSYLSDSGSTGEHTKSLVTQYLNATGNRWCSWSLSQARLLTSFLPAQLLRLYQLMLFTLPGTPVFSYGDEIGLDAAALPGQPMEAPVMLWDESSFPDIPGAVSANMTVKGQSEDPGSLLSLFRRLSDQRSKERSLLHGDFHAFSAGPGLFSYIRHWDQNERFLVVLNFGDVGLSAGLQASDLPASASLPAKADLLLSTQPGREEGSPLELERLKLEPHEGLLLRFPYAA
As to the kind of experiment: D-[3H]-serine transport in HRPE cells transfected with transporter cDNA. Format: cell-based. The conditions noted are these: D-[3H]-serine 5 μM. The protocol: (§1) Transport of D-[^3H]-serine (5 μM) was measured in HRPE cells transfected with cDNA of each transporter.
(§2) The present inventors evaluated the function of 10 different amino acid transporter clones with respect to transport of D-serine in heterologous expression systems (FIG. 11). All of these transporters are expressed in the intestinal tract. The list of the transporters tested include three energy-independent, heterodimeric facilitative transporters (L1, L2, and b^0,+), three subtypes of the Na^+-coupled system A (ATA1, ATA2, and ATA3), two subtypes of the Na^+- and H^+-coupled system N (SN1 and SN2), the Na^+-coupled system ATB^0, and the Na^+- and Cl^−-coupled system ATB^0,+. […] The ability to transport D-serine was the highest for the Na^+- and Cl^−-coupled transporter ATB^0,+. ATB^0,+ belongs to the gene family of neurotransmitter transporters whose transport function is energized by multiple driving forces, namely a Na^+ gradient, a Cl^− gradient, and membrane potential. […] Based on the energetics of these two transport systems, ATB^0,+ is expected to play the leading role in this process.

The target of a further experiment is T3, SN2 (Homo sapiens, UniProt Q8WUX1).
T3 construct: expressed in transfected cells; host or cells: HRPE cells
T3 sequence (Q8WUX1 whole entry, species assumed): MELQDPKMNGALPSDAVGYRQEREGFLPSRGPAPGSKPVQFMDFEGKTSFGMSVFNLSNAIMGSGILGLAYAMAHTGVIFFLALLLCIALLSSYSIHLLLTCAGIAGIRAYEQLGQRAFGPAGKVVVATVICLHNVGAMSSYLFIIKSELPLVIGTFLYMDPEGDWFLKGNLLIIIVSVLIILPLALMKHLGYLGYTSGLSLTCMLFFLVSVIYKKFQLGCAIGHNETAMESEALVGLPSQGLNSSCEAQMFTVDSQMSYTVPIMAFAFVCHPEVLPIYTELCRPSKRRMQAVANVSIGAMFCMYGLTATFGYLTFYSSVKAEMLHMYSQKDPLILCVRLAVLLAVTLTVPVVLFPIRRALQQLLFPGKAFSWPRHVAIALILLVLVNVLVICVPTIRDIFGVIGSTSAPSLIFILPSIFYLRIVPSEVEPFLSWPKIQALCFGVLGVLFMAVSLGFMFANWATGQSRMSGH
Described as above. The note with it: D-[3H]-serine 5 μM. Format: cell-based. The protocol: as §1, §2

The target in the next experiment is T4, b^0,+ (b^0,+AT/4F2hc) (Mus musculus, UniProt Q9QXA6).
T4 construct: expressed in transfected cells; host or cells: HRPE cells
T4 sequence (Q9QXA6 1-487): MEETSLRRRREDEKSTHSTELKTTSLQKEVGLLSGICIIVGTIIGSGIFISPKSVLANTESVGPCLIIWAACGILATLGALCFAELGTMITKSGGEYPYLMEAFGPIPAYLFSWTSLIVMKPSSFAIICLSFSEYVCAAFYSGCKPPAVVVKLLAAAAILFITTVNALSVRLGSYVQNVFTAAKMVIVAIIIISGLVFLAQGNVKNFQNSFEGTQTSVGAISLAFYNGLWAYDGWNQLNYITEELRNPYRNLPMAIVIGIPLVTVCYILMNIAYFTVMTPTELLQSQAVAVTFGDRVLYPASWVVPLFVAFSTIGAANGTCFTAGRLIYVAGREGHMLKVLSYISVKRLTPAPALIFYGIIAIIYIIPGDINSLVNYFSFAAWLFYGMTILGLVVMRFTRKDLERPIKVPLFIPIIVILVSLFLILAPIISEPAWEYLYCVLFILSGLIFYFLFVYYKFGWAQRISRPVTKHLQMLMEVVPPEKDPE
Described as above. The conditions noted are these: D-[3H]-serine 5 μM. Type of experiment: cell-based. The protocol: as §1, §2

Structures are written as SMILES.

As for `N[C@H](CO)C(=O)O` [D-Serine, D-serine], the “Current in X. laevis oocytes (nA), D-isomer” value at mouse ATB^0,+ came to 267 ± 23 nA. The figures for the D-serine transport entry on LAT2/4F2hc, at SN2 and at b^0,+ (b^0,+AT/4F2hc) were “did not exhibit detectable D-serine transport activity”, “did not transport D-serine” and “significant ability to transport”, respectively.
